From PubChem BioAssay AID977626 (Broad Institute, 2014)
Inconclusive results are not listed. Active and inactive are the calls of the source. No rule for the calls is given here.

How the values were obtained:
[1] = system: E. coli WT-RFP vs G2058 humanized-GFP mixed culture, fluorescence; test: selective 23S rRNA G2058 site antibacterials – G2058 mutant GFP vs wild-type RFP, cherry-pick, OD600, dose response (AID 977626)
[2] = as above; details: E. coli WT-RFP vs G2058 humanized-GFP mixed culture, fluorescence; at 50 µM (top of the series)
[3] = E. coli WT-RFP vs G2058 humanized-GFP mixed culture, measured here: total growth OD600
[4] = measured here: G2058 humanized mutant strain GFP

Compound | AC50 [1] [µM] | AC50 [1, 3] [µM] | AC50 [1, 4] [µM] | activity change, negative = inhibition [2]
COc1ccc(NC(=O)c2ccc(-c3ccc([N+](=O)[O-])cc3)o2)cc1 | 2.63 | 5.22 | > 100 | –
COC(=O)c1c(NC(=O)CCC(=O)O)sc(Cc2ccccc2)c1C | 9.22 | 3.27 | 3.03 | –
COc1ccc(Cn2c(-c3ccc(Cl)cc3)c[n+]3ccccc23)cc1 | – | 45.6 | – | -3.75 (inactive)
Cc1ccc(C)c(NC(=O)CSc2nc3nc(-c4cccs4)cc(C(F)(F)F)c3c(=O)[nH]2)c1 | – | 8.26 | 9.81 | -7.41 (inactive)
COc1ccc(Nc2oc(-c3ccco3)nc2S(=O)(=O)c2ccc(F)cc2)cc1 | 3.67 | – | – | –
CCN(CC)CCn1c2ccccc2c2nc3ccc([N+](=O)[O-])cc3cc21 | – | 4.58 | 5.66 | 26.7 (inactive)
O=C(O)c1cc([N+](=O)[O-])ccc1NCc1ccccc1 | – | 14.4 | 38.9 | 23.8 (inactive)
